Test results: the supplement of paper PMC10627819

What was measured:
[1] = test system: S. pneumoniae D39V; experiment: fitness (endpoint OD595 vs no drug) (fraction); higher = more growth
Summary of the method: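 Fitness was defined as the optical density at the transition into stationary phase relative to the robust mean of no-drug control wells. Values were capped at 1. Cultures were started at OD595 0.01 in 384-well plates (30 µl, or 55 µl for S. pneumoniae) in TSB, LB Lennox or CY at 37 °C. OD595 was recorded every 30 min over 14 h, with the first reading subtracted as background.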

[2] = test system: S. aureus DSM 20231; experiment: Bliss interaction score (quartile over a dose matrix) (fitness difference); higher = more antagonism (negative = synergy)
Summary of the method: (§1)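 Combination data were used to infer fitness under each single drug. Fitness is the OD595 at entry into stationary phase divided by the robust mean of the plate's no-drug wells, with a cap of 1. The Bliss score is the observed minus the expected product fitness, summarised by quartiles over technical, biological and donor/recipient replicates.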

[3] = test system: S. aureus Newman; experiment: as above
Summary of the method: as §1

[4] = test system: B. subtilis 168; experiment: as above
Summary of the method: as §1

[5] = test system: S. pneumoniae D39V; experiment: as above
Summary of the method: as §1
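Throughout, for Bliss interaction score (quartile over a dose matrix): first quartile when negative (synergy) and third quartile when positive (antagonism).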

CCC[C@@H]1C[C@@H](C(=O)N[C@@H]([C@H]2O[C@H](SC)[C@H](O)[C@@H](O)[C@H]2O)[C@@H](C)O)N(C)C1 [Lincomycin] + C/C(=C\C(=O)OCCCCCCCCC(=O)O)C[C@@H]1OC[C@H](C[C@@H]2O[C@H]2[C@@H](C)[C@H](C)O)[C@@H](O)[C@H]1O [Pseudomonic acid]
fitness, [1]
Conditions	first compound 0.2 µg/mL	first compound 0.215 µg/mL	first compound 0.4 µg/mL	first compound 0.43 µg/mL	first compound 0.8 µg/mL	first compound 0.86 µg/mL
partner 0.03 µg/mL	0.649	0.828	–	0.633	0.121	0.177
partner 0.06 µg/mL	–	–	0.206	–	0.0533	0.142
partner 0.12 µg/mL	0.179	–	0.156	–	0.0889	0.12

Conditions	Bliss interaction score
[2]	0.0155
[3]	0.031
[4]	-0.0308
[5]	-0.269

CCC[C@@H]1C[C@@H](C(=O)N[C@@H]([C@H]2O[C@H](SC)[C@H](O)[C@@H](O)[C@H]2O)[C@@H](C)O)N(C)C1 [Lincomycin] + CO[C@H]1/C=C/O[C@@]2(C)Oc3c(C)c(O)c4c(O)c(c(/C=N/N5CCN(C)CC5)c(O)c4c3C2=O)NC(=O)/C(C)=C\C=C\[C@H](C)[C@H](O)[C@@H](C)[C@@H](O)[C@@H](C)[C@H](OC(C)=O)[C@@H]1C [Rifampicin]
fitness, [1], one replicate
Conditions	first compound 0.2 µg/mL	first compound 0.4 µg/mL	first compound 0.8 µg/mL
partner 0.025 µg/mL	0.137	0.0822	0.0813
partner 0.2 µg/mL	0	0	0

fitness, [1]
Conditions	first compound 0.2 µg/mL	first compound 0.215 µg/mL	first compound 0.4 µg/mL	first compound 0.43 µg/mL	first compound 0.8 µg/mL	first compound 0.86 µg/mL
partner 0.05 µg/mL	–	–	0.0846	–	0.0947	0.185
partner 0.1 µg/mL	0.076	–	0.0641	–	0.0864	0.147
partner 0.2 µg/mL	–	0.26	–	0.221	–	0.131

Conditions	Bliss interaction score
[2]	-0.0747
[3]	0.0333
[4]	-0.0988
[5]	-0.136

CCC[C@@H]1C[C@@H](C(=O)N[C@@H]([C@H]2O[C@H](SC)[C@H](O)[C@@H](O)[C@H]2O)[C@@H](C)O)N(C)C1 [Lincomycin] + Clc1ccc(COC(Cn2ccnc2)c2ccc(Cl)cc2Cl)c(Cl)c1 [Miconazole]
[1]
Conditions	fitness
first compound 0.2 µg/mL, partner 1.073 µg/mL	0.824
first compound 0.2 µg/mL, partner 2.145 µg/mL	0.874
first compound 0.2 µg/mL, partner 4.29 µg/mL	0.807
first compound 0.215 µg/mL, partner 1.25 µg/mL	0.808
first compound 0.215 µg/mL, partner 2.5 µg/mL	0.782
first compound 0.215 µg/mL, partner 5 µg/mL	0.81
first compound 0.4 µg/mL, partner 1.073 µg/mL	0.716
first compound 0.4 µg/mL, partner 2.145 µg/mL	0.683
first compound 0.4 µg/mL, partner 4.29 µg/mL	0.544
first compound 0.43 µg/mL, partner 1.25 µg/mL	0.71
first compound 0.43 µg/mL, partner 2.5 µg/mL	0.682
first compound 0.43 µg/mL, partner 5 µg/mL	0.689
first compound 0.8 µg/mL, partner 4.29 µg/mL	0.275
first compound 0.86 µg/mL, partner 1.25 µg/mL	0.264
first compound 0.86 µg/mL, partner 2.5 µg/mL	0.308
first compound 0.86 µg/mL, partner 5 µg/mL	0.377

Conditions	Bliss interaction score
[2]	0.0484
[3]	0.0538
[4]	0.0378
[5]	0.117

CCC[C@@H]1C[C@@H](C(=O)N[C@@H]([C@H]2O[C@H](SC)[C@H](O)[C@@H](O)[C@H]2O)[C@@H](C)O)N(C)C1 [Lincomycin] + O=C1CN(/N=C/c2ccc([N+](=O)[O-])o2)C(=O)N1 [Nitrofurantoin]
fitness, [1]
Conditions	first compound 0.2 µg/mL	first compound 0.215 µg/mL	first compound 0.4 µg/mL	first compound 0.43 µg/mL	first compound 0.8 µg/mL	first compound 0.86 µg/mL
partner 1.285 µg/mL	0.718	–	0.677	–	0.281	–
partner 2 µg/mL	–	0.753	–	0.681	–	0.392
partner 2.57 µg/mL	0.775	–	0.716	–	0.266	–
partner 4 µg/mL	–	0.763	–	0.7	–	0.358
partner 8 µg/mL	–	0.711	–	0.381	–	0.141

[1], partner 5.14 µg/mL, one replicate
Conditions	fitness
first compound 0.2 µg/mL	0.768
first compound 0.4 µg/mL	0.633
first compound 0.8 µg/mL	0.189

Conditions	Bliss interaction score
[2]	-0.0943
[3]	-0.101
[4]	0.163
[5]	-0.118

COc1c(N2C[C@@H]3CCCN[C@@H]3C2)c(F)cc2c(=O)c(C(=O)O)cn(C3CC3)c12 [Moxifloxacin] + CO[C@H]1/C=C/O[C@@]2(C)Oc3c(C)c(O)c4c(O)c(c(/C=N/N5CCN(C)CC5)c(O)c4c3C2=O)NC(=O)/C(C)=C\C=C\[C@H](C)[C@H](O)[C@@H](C)[C@@H](O)[C@@H](C)[C@H](OC(C)=O)[C@@H]1C [Rifampicin]
fitness, [1], one replicate
Conditions	first compound 0.0037 µg/mL	first compound 0.0075 µg/mL	first compound 0.015 µg/mL
partner 0.025 µg/mL	0.868	0.822	0.779
partner 0.2 µg/mL	0	0	0

fitness, [1]
Conditions	first compound 0.0037 µg/mL	first compound 0.005 µg/mL	first compound 0.0075 µg/mL	first compound 0.01 µg/mL	first compound 0.015 µg/mL	first compound 0.02 µg/mL
partner 0.05 µg/mL	0.776	0.919	0.725	0.908	0.713	0.908
partner 0.1 µg/mL	0.317	–	0.295	–	0.354	–
partner 0.2 µg/mL	–	0.168	–	0.196	–	0.198

Conditions	Bliss interaction score
[2]	-0.0701
[3]	-0.0223
[4]	-0.0221
[5]	-0.0845

COc1c(N2C[C@@H]3CCCN[C@@H]3C2)c(F)cc2c(=O)c(C(=O)O)cn(C3CC3)c12 [Moxifloxacin] + O=C1CN(/N=C/c2ccc([N+](=O)[O-])o2)C(=O)N1 [Nitrofurantoin]
fitness, [1]
Conditions	first compound 0.0037 µg/mL	first compound 0.005 µg/mL	first compound 0.0075 µg/mL	first compound 0.01 µg/mL	first compound 0.015 µg/mL	first compound 0.02 µg/mL
partner 1.285 µg/mL	0.969	–	0.914	–	0.884	–
partner 2 µg/mL	–	0.972	–	0.961	–	0.893
partner 2.57 µg/mL	0.906	–	0.903	–	0.912	–
partner 4 µg/mL	–	0.949	–	0.949	–	0.879
partner 8 µg/mL	–	0.836	–	0.872	–	0.81

[1], partner 5.14 µg/mL, one replicate
Conditions	fitness
first compound 0.0037 µg/mL	0.797
first compound 0.0075 µg/mL	0.748
first compound 0.015 µg/mL	0.78

Conditions	Bliss interaction score
[2]	0.0448
[3]	-0.0496
[4]	0.0132
[5]	0.0837
